# Source: PMC5829649, “The ribosomal A-site finger is crucial for binding and activation of the stringent factor RelA” (Nucleic Acids Research, 2018)
# Assays:
# RelA [1] = molecular target: T1, RelA (Escherichia coli, UniProt P0AG20); assay: 3H-GTP conversion to pppGpp by purified RelA with ribosomes, TLC; format: biochemical
# T1 construct: untagged native full-length RelA
# T1 sequence (P0AG20 1-744): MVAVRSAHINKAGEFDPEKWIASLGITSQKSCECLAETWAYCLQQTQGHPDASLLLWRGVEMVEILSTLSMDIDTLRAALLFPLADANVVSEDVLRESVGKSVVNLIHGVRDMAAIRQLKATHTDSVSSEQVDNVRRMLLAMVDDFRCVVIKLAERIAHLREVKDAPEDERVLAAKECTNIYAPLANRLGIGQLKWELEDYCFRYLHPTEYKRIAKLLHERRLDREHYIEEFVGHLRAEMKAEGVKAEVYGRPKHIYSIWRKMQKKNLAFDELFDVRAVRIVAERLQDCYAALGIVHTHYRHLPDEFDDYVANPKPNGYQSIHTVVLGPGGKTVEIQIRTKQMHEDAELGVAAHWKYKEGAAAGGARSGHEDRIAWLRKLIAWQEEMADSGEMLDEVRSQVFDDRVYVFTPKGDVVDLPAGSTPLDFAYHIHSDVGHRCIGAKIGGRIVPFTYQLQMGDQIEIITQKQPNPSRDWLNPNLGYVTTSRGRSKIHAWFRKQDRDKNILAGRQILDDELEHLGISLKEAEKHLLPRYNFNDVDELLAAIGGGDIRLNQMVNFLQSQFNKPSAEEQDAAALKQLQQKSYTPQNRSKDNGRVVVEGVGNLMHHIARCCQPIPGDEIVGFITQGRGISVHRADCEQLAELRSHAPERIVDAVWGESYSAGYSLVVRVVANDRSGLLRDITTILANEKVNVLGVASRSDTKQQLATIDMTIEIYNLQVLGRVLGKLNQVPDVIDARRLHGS
# RelA [2] = molecular target: T1, RelA; assay: product of 3H-GDP conversion by purified RelA; added at […] it only mildly modulates activity; format: biochemical
# RelA [3] = molecular target: T1, RelA; assay: 3H-ppGpp synthesis assay (TLC) with purified RelA, pppGpp titration (activation), RelA alone or with starved ribosomal complexes; format: biochemical
# RelA [4] = molecular target: T1, RelA; assay: 3H-GDP conversion to ppGpp by purified RelA with vacant 70S or starved ribosomal complexes, TLC; format: biochemical
# RelA (untagged native) = molecular target: T2, RelA (untagged native) (Escherichia coli DH5alpha, UniProt P0AG20 1-744); assay: EMSA; 70 nM RNA, up to 60x excess RelA; weak binding (KD above 3 uM) not excluded; HEPES:Polymix buffer, 5 mM Mg2+, pH 7.5, 37 C; details: protein: recombinant; tags: none; hairpin
# T2 sequence: T1 sequence (P0AG20 1-744)
molecule,measurement,setting,value
Nc1nc2c(ncn2[C@@H]2O[C@H](COP(=O)(O)OP(=O)(O)OP(=O)(O)O)[C@@H](O)[C@H]2O)c(=O)[nH]1 [GTP],"3H-GTP conversion to pppGpp by purified RelA with ribosomes, TLC",RelA [1],896 ± 29 pppGpp reactions per RelA per minute
Nc1nc2c(ncn2[C@@H]2O[C@H](COP(=O)(O)OP(=O)(O)O)[C@@H](OP(=O)(O)OP(=O)(O)O)[C@H]2O)c(=O)[nH]1 [ppGpp],product of 3H-GDP conversion by purified RelA; added at 100 μM it only mildly mo,RelA [2],"When GTP is used as a substrate, ppGpp acts as a weak inhibitor"
Nc1nc2c(ncn2[C@@H]2O[C@H](COP(=O)(O)OP(=O)(O)OP(=O)(O)O)[C@@H](OP(=O)(O)OP(=O)(O)O)[C@H]2O)c(=O)[nH]1 [pppGpp],EC50,RelA [3],500 to 600 nM
Nc1nc2c(ncn2[C@@H]2O[C@H](COP(=O)(O)OP(=O)(O)O)[C@@H](O)[C@H]2O)c(=O)[nH]1 [GDP],3H-GDP conversion to ppGpp by purified RelA with vacant 70S or starved ribosomal,RelA [4],1077±62 ppGpp per RelA per minute
"UCGGCAAGGGGGUCAUCCCGACUUACCAACCCGA (structured_RNA) [ASF RNA oligonucleotide (23S rRNA H38, 34 nt)]",binding result,RelA (untagged native),no binding
